{
  "source": "patent US6447775B1",
  "about": "“Modulators of expression and function of LRP in Alzheimer's disease” (The General Hospital Corporation, priority 1995, dated 2002)",
  "key": {"[1]": {"target": "LRP (Homo sapiens, UniProt Q07954)", "sequence (Q07954 20-3943 limits assumed)": "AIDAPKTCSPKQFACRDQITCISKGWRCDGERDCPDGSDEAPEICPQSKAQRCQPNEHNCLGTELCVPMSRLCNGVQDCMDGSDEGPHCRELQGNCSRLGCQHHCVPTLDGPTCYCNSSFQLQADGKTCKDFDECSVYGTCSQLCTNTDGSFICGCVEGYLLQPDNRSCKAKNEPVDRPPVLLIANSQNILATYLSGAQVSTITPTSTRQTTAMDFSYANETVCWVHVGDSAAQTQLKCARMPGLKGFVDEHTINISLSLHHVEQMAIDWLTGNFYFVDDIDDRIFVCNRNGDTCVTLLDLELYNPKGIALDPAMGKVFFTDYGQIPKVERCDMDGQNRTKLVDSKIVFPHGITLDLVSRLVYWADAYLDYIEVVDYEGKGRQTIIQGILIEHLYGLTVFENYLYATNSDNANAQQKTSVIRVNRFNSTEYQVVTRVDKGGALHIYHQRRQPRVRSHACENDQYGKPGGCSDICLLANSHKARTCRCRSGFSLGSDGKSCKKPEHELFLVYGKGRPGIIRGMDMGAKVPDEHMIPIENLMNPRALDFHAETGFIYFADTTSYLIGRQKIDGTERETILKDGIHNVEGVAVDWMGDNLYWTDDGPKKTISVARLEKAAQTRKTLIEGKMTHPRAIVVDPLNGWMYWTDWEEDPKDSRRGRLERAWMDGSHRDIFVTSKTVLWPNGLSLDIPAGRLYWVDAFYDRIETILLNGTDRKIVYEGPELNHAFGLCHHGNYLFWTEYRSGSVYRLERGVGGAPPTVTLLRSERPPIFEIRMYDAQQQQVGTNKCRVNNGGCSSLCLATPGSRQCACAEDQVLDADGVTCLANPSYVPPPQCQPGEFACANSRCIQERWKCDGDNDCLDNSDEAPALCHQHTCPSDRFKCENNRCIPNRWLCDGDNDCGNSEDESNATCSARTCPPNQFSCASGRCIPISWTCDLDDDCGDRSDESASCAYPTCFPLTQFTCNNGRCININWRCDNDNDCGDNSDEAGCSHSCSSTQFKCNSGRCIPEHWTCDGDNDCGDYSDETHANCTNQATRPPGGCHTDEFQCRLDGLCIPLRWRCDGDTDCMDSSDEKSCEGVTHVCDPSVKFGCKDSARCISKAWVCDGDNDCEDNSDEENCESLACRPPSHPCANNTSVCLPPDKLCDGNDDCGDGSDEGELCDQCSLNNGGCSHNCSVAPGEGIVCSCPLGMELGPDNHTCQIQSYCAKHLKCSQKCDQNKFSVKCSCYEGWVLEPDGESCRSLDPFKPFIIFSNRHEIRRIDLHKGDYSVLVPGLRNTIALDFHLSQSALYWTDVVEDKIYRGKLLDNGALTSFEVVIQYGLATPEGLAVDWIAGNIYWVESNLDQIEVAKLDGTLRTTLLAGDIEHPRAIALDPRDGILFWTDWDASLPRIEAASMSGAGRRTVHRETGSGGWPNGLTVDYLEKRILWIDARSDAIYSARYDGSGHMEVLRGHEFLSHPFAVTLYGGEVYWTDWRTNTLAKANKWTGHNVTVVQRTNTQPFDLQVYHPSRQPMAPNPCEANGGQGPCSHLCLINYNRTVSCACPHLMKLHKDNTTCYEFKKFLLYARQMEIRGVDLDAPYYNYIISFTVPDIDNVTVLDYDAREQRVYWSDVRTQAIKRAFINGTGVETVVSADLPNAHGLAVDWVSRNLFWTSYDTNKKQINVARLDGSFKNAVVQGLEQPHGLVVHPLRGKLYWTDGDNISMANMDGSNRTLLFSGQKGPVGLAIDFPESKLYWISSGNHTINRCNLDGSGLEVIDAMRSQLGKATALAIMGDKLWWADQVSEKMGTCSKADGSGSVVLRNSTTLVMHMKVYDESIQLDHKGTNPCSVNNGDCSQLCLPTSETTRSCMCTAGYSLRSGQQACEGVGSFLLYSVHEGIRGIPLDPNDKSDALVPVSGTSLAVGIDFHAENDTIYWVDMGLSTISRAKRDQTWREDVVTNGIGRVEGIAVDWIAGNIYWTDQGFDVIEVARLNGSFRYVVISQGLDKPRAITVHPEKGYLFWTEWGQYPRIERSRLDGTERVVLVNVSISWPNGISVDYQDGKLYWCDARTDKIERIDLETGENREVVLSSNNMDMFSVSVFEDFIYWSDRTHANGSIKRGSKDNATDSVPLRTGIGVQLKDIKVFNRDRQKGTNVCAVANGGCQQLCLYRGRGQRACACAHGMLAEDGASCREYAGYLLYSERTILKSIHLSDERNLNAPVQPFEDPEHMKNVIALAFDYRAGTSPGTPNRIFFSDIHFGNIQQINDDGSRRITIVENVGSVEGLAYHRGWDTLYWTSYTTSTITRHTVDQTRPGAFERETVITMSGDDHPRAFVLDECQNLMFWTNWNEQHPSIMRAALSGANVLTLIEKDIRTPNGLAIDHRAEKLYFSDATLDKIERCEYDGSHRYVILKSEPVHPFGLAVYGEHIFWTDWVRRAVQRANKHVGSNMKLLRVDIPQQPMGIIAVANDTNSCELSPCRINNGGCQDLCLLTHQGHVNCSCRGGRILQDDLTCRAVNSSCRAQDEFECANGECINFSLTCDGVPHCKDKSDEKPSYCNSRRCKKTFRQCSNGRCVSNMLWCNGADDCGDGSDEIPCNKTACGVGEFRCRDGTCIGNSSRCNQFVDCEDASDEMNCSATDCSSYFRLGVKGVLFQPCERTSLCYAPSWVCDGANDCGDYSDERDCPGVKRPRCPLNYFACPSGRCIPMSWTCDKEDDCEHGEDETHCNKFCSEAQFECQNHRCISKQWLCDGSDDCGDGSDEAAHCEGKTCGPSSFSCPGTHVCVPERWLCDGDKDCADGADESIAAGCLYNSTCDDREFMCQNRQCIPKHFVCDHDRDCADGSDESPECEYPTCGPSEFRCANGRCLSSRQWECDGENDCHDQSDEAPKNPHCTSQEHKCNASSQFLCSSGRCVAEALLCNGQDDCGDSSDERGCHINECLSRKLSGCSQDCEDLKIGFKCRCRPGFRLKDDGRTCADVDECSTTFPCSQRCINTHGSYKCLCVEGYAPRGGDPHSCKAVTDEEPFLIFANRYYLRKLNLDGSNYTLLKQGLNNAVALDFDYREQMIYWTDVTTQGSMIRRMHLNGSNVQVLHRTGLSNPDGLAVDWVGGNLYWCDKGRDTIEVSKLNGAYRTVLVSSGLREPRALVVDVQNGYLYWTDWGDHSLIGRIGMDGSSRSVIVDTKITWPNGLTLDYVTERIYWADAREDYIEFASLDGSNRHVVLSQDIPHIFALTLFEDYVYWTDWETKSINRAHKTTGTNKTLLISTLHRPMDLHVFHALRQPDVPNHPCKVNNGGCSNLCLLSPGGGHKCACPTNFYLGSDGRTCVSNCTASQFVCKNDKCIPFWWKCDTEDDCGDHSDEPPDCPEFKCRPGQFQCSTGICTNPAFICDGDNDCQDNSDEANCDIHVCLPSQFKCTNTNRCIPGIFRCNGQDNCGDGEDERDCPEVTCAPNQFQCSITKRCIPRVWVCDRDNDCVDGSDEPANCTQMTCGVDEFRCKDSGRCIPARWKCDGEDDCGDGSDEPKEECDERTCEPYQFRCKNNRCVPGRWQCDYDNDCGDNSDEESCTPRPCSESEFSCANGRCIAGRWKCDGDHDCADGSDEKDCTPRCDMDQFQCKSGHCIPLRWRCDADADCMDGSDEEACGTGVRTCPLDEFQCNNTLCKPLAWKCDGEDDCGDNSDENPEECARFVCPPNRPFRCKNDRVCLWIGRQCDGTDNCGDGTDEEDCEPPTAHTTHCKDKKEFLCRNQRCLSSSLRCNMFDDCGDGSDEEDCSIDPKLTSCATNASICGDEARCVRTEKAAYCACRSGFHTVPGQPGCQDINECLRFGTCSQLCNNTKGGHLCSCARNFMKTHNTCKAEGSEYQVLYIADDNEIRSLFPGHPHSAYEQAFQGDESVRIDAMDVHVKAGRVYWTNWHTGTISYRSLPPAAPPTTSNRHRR", "sequence (Q07954 3944-4544 partner limits assumed)": "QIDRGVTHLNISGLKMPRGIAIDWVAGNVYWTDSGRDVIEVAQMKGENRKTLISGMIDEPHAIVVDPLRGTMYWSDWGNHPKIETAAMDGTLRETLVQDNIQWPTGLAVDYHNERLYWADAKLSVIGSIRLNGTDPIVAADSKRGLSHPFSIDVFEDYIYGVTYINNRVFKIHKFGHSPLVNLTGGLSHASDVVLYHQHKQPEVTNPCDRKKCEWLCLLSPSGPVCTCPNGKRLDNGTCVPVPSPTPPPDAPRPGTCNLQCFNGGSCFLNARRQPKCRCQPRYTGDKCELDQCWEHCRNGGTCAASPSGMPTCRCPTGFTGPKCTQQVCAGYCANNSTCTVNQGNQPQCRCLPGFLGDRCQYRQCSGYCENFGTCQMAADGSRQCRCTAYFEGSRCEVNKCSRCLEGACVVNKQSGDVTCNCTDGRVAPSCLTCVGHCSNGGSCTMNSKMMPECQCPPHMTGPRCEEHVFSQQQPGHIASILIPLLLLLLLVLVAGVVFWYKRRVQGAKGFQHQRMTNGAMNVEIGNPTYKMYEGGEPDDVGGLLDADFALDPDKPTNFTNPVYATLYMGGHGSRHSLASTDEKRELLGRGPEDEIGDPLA", "experiment": "ELISA of LRP binding to APPs770 captured on zinc-coated wells", "conditions": "LRP 25 nM, RAP 0.2-450 nM", "experimental": "In panel A, zinc-coated wells (∘) or zinc-coated wells incubated with APPs770 (●) were incubated with the APPs770 monoclonal antibody 7H5. In panel B, increasing concentrations of LRP (0.14-300 nM) were incubated for 18 h at 4° C. with zinc-coated wells (∘) or zinc-coated wells with captured APPs770 (●). Panel C, LRP (25 nM) was incubated with zinc-coated wells (∘) or zinc-coated wells with captured APPs770 (●) in the presence of increasing concentrations of RAP (0.2-450 nM). Bound receptor was detected with the monoclonal LRP antibody 8G1. In the absence of LRP there was no binding of 8G1 IgG to APPs770-coated wells. Plotted values represent means of duplicate determinations."}, "[2]": {"system": "LRP-expressing (MEF) cells", "experiment": "Cellular internalization and degradation of 125I-labeled ligands by LRP-expressing mouse fibroblasts", "assay_type": "cell-based", "experimental": "(§1) Wells containing 2×10^5 LRP-expressing (MEF) or LRP-deficient (PEA13) cells were incubated with various concentrations (0.37-10 nM) of ^125I-APPs770 (Panels A and B) or 125I-APPs695 (Panels C and D) for 10 h at 37° C. in the absence of competitor (●) or in the presence of either 1 μM RAP (∘), or 100 μg/ml heparin (□). The cellular degradation of ^125I-labeled APPs770 by LRP-expressing MEF cells is shown in panel A and by LRP-deficient PEA13 cells in panel B. The cellular degradation of ^125I-APPs695 by LRP-expressing cells is depicted in panel C and by LRP-deficient cells in panel D. Plotted values represent means of duplicate determinations. Inset to panel B, autoradiogram of ^125I-labeled APPs770 (lane 1) and APPs695 (lane 2). The migration position of molecular mass standards are indicated on the right in kDa.\nWells containing 2×10^5 LRP-expressing (●) or LRP-deficient (∘) mouse fibroblasts were incubated with ^125I-LDL (8 μg/ml) or ^125I-α2M* (1.4 nM) for selected time intervals. […] Shown are the amounts of ^125I-LDL internalized (panel A) and degraded (panel B), ^125I-α2M* internalized (panel C) and degraded (panel D). The plotted values represent means of duplicate determinations.\nMouse fibroblasts (2×10^5 cells per well) were incubated for selected times with ^125I-APPs770 (1 nM) in the absence of competitor (●) or in the presence of either 1 μM RAP (∘), or 100 μg/ml heparin (□). The amount of radioactivity internalized and degraded was determined at the indicated time intervals. […] The plotted values are means of duplicate determinations.\nMouse fibroblasts (2×10^5 cells/well) were incubated for 18 h at 37° C. with ^125I-APPs770 (10 nM) in the absence of competitor or in the presence of either heparin (100 μg/ml), chloroquine (0.1 mM), RAP (1 μM), affinity purified anti-LRP IgG (100 μg/ml), or control IgG against the cytoplasmic domain of LRP (100 μg/ml). Panels show the amount of ^125I-APPs770 degraded by mouse fibroblasts expressing LRP (A) or ones deficient in LRP expression (B). The data shown are means of duplicate determinations±S. E.\nWells containing 2×10^5 LRP-expressing (MEF) or LRP-deficient (PEA13) cells were incubated with ^125I-APPs770 (5 nM) or ^125I-APPs770:FIXa (3 nM) for 18 h at 37° C. in the absence of competitor or in the presence of 1 μM RAP. The amount of ^125I-labeled APPs770 or ^125I-APPs770:Factor IXa degraded by LRP-expressing MEF cells is shown in panel A and that by LRP-deficient PEA13 cells in panel B. Plotted values represent means of duplicate determinations.\nMouse fibroblasts (2×10^5) were incubated for 18 h at 37° C. with ^125I-APP/PN-2 (8.8 nM) in the absence of competitor or in the presence of either RAP (1 μM)), 10 μg/ml apoE3/βVLDL, 10 μg/ml apoE4/βVLDL, or 10 μg/ml βVLDL. […]"}, "[3]": {"system": "LRP-deficient (PEA13) cells", "experiment": "Cellular internalization and degradation of 125I-labeled ligands by LRP-deficient mouse fibroblasts", "assay_type": "cell-based", "experimental": "as §1\nWells containing 2×10^5 LRP-expressing (●) or LRP-deficient (∘) mouse fibroblasts were incubated with ^125I-LDL (8 μg/ml) or ^125I-α2M* (1.4 nM) for selected time intervals. […]\nMouse fibroblasts (2×10^5 cells per well) were incubated for selected times with ^125I-APPs770 (1 nM) in the absence of competitor (●) or in the presence of either 1 μM RAP (∘), or 100 μg/ml heparin (□). The amount of radioactivity internalized and degraded was determined at the indicated time intervals. […]"}},
  "note": "“Also recorded” adds a separate entry of the source.",
  "data": [
    {"molecule": "RAP: 39 kDa receptor associated protein that binds members of the LDL receptor family and blocks their ligand binding capacity", "values": [
      {"measurement": "inhibition of APP binding to LRP", "setting": "[1]", "value": "inhibition of APP binding"},
      {"measurement": "inhibition of 125I-APPs770 degradation by apoE isoforms/βVLDL or RAP", "setting": "[2]; 18 h at 37° C., 125I-APP/PN-2 8.8 nM, 10 μg/ml apoE/βVLDL or RAP 1 μM, F(4,15)=21.65, p=0.0001, p<0.05 vs βVLDL alone, RAP p<0.001", "value": "statistically significant"},
      {"measurement": "inhibition of catabolism/degradation of APP (125I-APPs770) by added competitor", "setting": "[2]; LRP-containing fibroblasts, RAP 1 μM, anti-LRP IgG 100 μg/ml", "value": "inhibition of catabolism of APP; also recorded: inhibition of degradation"}
    ]},
    {"molecule": "heparin", "values": [
      {"measurement": "inhibition of internalization of APP (125I-APPs770)", "setting": "[2]; LRP-containing fibroblasts, 125I-APPs770 1 nM, heparin 100 μg/ml", "value": "inhibition of internalization of APP"},
      {"measurement": "inhibition of internalization of APP (125I-APPs770)", "setting": "[3]; 125I-APPs770 1 nM, heparin 100 μg/ml", "value": "inhibition of internalization of APP"}
    ]},
    {"molecule": "α2-macroglobulin: 125I-labeled α2-macroglobulin, LRP ligand control (protein, UniProt P01023 24-1474, looked up, 125I label, 125I-labeled α2-macroglobulin, LRP ligand control) Alpha-2-macroglobulin: SVSGKPQYMVLVPSLLHTETTEKGCVLLSYLNETVTVSASLESVRGNRSLFTDLEAENDVLHCVAFAVPKSSSNEEVMFLTVQVKGPTQEFKKRTTVMVKNEDSLVFVQTDKSIYKPGQTVKFRVVSMDENFHPLNELIPLVYIQDPKGNRIAQWQSFQLEGGLKQFSFPLSSEPFQGSYKVVVQKKSGGRTEHPFTVEEFVLPKFEVQVTVPKIITILEEEMNVSVCGLYTYGKPVPGHVTVSICRKYSDASDCHGEDSQAFCEKFSGQLNSHGCFYQQVKTKVFQLKRKEYEMKLHTEAQIQEEGTVVELTGRQSSEITRTITKLSFVKVDSHFRQGIPFFGQVRLVDGKGVPIPNKVIFIRGNEANYYSNATTDEHGLVQFSINTTNVMGTSLTVRVNYKDRSPCYGYQWVSEEHEEAHHTAYLVFSPSKSFVHLEPMSHELPCGHTQTVQAHYILNGGTLLGLKKLSFYYLIMAKGGIVRTGTHGLLVKQEDMKGHFSISIPVKSDIAPVARLLIYAVLPTGDVIGDSAKYDVENCLANKVDLSFSPSQSLPASHAHLRVTAAPQSVCALRAVDQSVLLMKPDAELSASSVYNLLPEKDLTGFPGPLNDQDNEDCINRHNVYINGITYTPVSSTNEKDMYSFLEDMGLKAFTNSKIRKPKMCPQLQQYEMHGPEGLRVGFYESDVMGRGHARLVHVEEPHTETVRKYFPETWIWDLVVVNSAGVAEVGVTVPDTITEWKAGAFCLSEDAGLGISSTASLRAFQPFFVELTMPYSVIRGEAFTLKATVLNYLPKCIRVSVQLEASPAFLAVPVEKEQAPHCICANGRQTVSWAVTPKSLGNVNFTVSAEALESQELCGTEVPSVPEHGRKDTVIKPLLVEPEGLEKETTFNSLLCPSGGEVSEELSLKLPPNVVEESARASVSVLGDILGSAMQNTQNLLQMPYGCGEQNMVLFAPNIYVLDYLNETQQLTPEIKSKAIGYLNTGYQRQLNYKHYDGSYSTFGERYGRNQGNTWLTAFVLKTFAQARAYIFIDEAHITQALIWLSQRQKDNGCFRSSGSLLNNAIKGGVEDEVTLSAYITIALLEIPLTVTHPVVRNALFCLESAWKTAQEGDHGSHVYTKALLAYAFALAGNQDKRKEVLKSLNEEAVKKDNSVHWERPQKPKAPVGHFYEPQAPSAEVEMTSYVLLAYLTAQPAPTSEDLTSATNIVKWITKQQNAQGGFSSTQDTVVALHALSKYGAATFTRTGKAAQVTIQSSGTFSSKFQVDNNNRLLLQQVSLPELPGEYSMKVTGEGCVYLQTSLKYNILPEKEEFPFALGVQTLPQTCDEPKAHTSFQISLSVSYTGSRSASNMAIVDVKMVSGFIPLKPTVKMLERSNHVSRTEVSSNHVLIYLDKVSNQTLSLFFTVLQDVPVRDLKPAIVKVYDYYETDEFAIAEYNAPCSKDLGNA", "values": [
      {"measurement": "catabolism (internalization and degradation) of 125I-labeled ligand by cells", "setting": "[2]; LRP-containing fibroblasts, 37° C., no competitor", "value": "internalization and degradation"},
      {"measurement": "catabolism (internalization and degradation) of 125I-labeled ligand by cells", "setting": "[3]; 37° C., no competitor", "value": "lack of both internalization and degradation"}
    ]}
  ]
}
